Source: the CheMixHub drug solubility set

Assay: xn = mol fraction of the nth substance listed, in the solute-free solvent

CN1CCN(C2=Nc3cc(Cl)ccc3Nc3ccccc32)CC1 + CC(C)O + O
solubility (g/100 g solution)
Conditions	x2 = 0.03225	x2 = 0.06974	x2 = 0.1139	x2 = 0.1666	x2 = 0.2307	x2 = 0.3103	x2 = 0.4117	x2 = 0.5454	x2 = 0.7297
278.15 K	0.00624	0.0228	0.0624	0.135	0.239	0.393	0.559	0.783	0.957
283.15 K	0.00829	0.029	0.0775	0.164	0.288	0.463	0.667	0.914	1.13
288.15 K	0.0108	0.0371	0.096	0.199	0.35	0.567	0.781	1.08	1.32
293.15 K	0.014	0.0473	0.117	0.237	0.417	0.659	0.933	1.27	1.54
298.15 K	0.0182	0.06	0.144	0.283	0.493	0.781	1.09	1.47	1.78
303.15 K	0.0233	0.0733	0.171	0.336	0.578	0.917	1.25	1.72	2.07
308.15 K	0.0298	0.0919	0.207	0.399	0.675	1.06	1.47	1.96	2.37
313.15 K	0.0368	0.113	0.249	0.472	0.803	1.22	1.69	2.24	2.68
318.15 K	0.0461	0.137	0.295	0.552	0.923	1.42	1.95	2.58	3.06
323.15 K	0.0576	0.166	0.344	0.642	1.07	1.63	2.21	2.92	3.45
328.15 K	0.071	0.203	0.407	0.739	1.23	1.85	2.53	3.33	3.91

Nc1nccnc1Cl + CC(C)O + O
solubility (g/100 g solution)
Conditions	278.15 K	283.15 K	288.15 K	293.15 K	298.15 K	303.15 K	308.15 K	313.15 K	318.15 K	323.15 K
x2 = 0.03225	0.0425	0.0564	0.0738	0.092	0.112	0.133	0.154	0.178	0.201	0.227
x2 = 0.06974	0.0786	0.103	0.134	0.166	0.201	0.237	0.275	0.316	0.356	0.402
x2 = 0.1139	0.129	0.168	0.215	0.266	0.321	0.38	0.439	0.503	0.567	0.64
x2 = 0.1666	0.19	0.245	0.313	0.387	0.466	0.551	0.638	0.729	0.824	0.93
x2 = 0.2307	0.242	0.315	0.4	0.503	0.609	0.724	0.84	0.962	1.09	1.24
x2 = 0.3103	0.31	0.394	0.503	0.621	0.753	0.893	1.05	1.2	1.38	1.57
x2 = 0.4117	0.355	0.459	0.585	0.73	0.887	1.06	1.23	1.42	1.61	1.85
x2 = 0.5454	0.393	0.507	0.645	0.808	0.982	1.18	1.38	1.58	1.83	2.1
x2 = 0.7297	0.411	0.529	0.672	0.836	1.02	1.23	1.45	1.67	1.93	2.26
